Assay results reported in US20250091992A1, “NOVEL COMPOUNDS AND USES THEREOF” (KANNA HEALTH LIMITED, priority 2021, published 2025).
Like-named read-outs stand apart in the source and are kept apart here.

Assays:
[1] = target: T1, hSERT (Homo sapiens, UniProt P31645); test: SERT assay (Compounds of Formula II), transporter uptake assay kit; type: cell-based
T1 construct: expressed in transfected cells
Method: SERT assays were performed using a standard transporter uptake assay kit, (Molecular devices, (R8174)). In short, test compounds (10 nM-30 μM), reference compound or vehicle control were added to cells stably expressing hSERT (20,000/well) in assay buffer containing HBSS (20 mM) and BSA (0.1% (w/v)) for 30 mins at 30° C. Assay plates were incubated in the presence of dye for a further 60 mins at 37° C. and intracellular fluorescence intensity was determined.

[2] = target: T2, PDE-4A1A (Homo sapiens, UniProt P27815); test: PDE-41A assay (Compounds of Formula II), AMP-Glo; type: biochemical
T2 construct: purchased Sigma SRP0262
T2 sequence (P27815 1-647 isoform P27815-4): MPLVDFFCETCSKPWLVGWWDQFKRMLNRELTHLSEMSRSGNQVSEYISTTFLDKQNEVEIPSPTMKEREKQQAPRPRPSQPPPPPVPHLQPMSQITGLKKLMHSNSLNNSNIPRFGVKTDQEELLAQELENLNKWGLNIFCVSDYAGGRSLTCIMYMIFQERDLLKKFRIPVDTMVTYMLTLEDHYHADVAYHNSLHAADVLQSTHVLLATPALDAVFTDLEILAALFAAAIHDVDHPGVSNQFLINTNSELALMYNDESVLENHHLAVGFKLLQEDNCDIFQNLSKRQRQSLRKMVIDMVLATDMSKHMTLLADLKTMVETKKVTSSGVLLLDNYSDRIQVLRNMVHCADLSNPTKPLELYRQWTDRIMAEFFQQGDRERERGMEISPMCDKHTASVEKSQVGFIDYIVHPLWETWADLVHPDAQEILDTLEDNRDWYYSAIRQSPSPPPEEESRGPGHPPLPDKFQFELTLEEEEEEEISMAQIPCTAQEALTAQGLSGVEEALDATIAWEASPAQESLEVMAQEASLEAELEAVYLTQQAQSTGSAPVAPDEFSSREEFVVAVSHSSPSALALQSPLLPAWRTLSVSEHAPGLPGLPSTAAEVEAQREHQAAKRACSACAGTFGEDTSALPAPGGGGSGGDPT
Method: PDE-41A assays were performed using the AMP-Glo™ Assay Kit, (Promega-V5012) human recombinant […] (Sigma, SRP0262) according to recommended protocols. […]

[3] = target: human recombinant PDE-4D2 (Homo sapiens, UniProt Q08499); test: PDE4-D2 assay (Compounds of Formula I), SPA; type: biochemical; details: for IC50: 4-parameter logistical fit, two technical replicates; for inhibition at 30 µM: relative to Ro 20-1724
human recombinant PDE-4D2, sequence (Q08499 303-809): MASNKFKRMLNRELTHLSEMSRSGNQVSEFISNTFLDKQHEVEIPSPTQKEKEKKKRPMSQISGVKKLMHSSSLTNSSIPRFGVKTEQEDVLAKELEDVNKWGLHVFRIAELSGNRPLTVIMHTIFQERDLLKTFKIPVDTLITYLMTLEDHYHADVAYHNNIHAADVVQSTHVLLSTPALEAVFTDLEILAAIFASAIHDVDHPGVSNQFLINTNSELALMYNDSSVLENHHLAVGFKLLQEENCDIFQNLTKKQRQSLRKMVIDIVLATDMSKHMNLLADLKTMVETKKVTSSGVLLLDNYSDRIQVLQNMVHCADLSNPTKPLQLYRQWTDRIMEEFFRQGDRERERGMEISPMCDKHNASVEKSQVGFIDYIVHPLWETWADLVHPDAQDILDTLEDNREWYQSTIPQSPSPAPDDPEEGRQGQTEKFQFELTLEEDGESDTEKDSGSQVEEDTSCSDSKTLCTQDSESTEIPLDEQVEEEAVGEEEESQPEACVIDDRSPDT
Method: (§1) 20 mins after addition of human recombinant PDE-4B1 (1.2 IEU) or PDE-4D2 (1.5 IEU), SPA beads were added and incubated at 22° C. for a further 30 mins. [^3H]5′AMP was quantified by a standard scintillation counting method.

[4] = target: human recombinant PDE-4B1 (Homo sapiens, UniProt Q07343); test: PDE4-B1 assay (Compounds of Formula I), SPA; type: biochemical; details: for IC50: 4-parameter logistical fit, two technical replicates; for inhibition at 30 µM: relative to Ro 20-1724
human recombinant PDE-4B1, sequence (Q07343 whole entry): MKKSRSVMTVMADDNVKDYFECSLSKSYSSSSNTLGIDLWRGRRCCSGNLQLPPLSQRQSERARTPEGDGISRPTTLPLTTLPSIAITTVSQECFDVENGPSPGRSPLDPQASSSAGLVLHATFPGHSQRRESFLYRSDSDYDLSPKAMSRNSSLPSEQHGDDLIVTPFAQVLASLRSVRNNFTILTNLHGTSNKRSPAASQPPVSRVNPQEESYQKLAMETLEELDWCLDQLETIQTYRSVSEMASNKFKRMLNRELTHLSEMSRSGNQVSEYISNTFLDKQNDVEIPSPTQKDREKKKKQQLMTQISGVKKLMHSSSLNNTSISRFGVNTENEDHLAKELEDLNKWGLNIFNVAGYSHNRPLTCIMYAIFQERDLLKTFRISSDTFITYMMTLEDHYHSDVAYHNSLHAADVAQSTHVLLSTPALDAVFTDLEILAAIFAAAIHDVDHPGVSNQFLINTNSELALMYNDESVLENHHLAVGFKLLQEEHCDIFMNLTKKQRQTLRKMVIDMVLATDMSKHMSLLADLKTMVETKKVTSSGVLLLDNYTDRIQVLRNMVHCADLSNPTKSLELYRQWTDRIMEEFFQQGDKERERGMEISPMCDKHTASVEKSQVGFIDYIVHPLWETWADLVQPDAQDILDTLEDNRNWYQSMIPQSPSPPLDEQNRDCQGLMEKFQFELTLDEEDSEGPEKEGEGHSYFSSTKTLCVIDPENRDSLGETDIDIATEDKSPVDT
Method: as §1

[5] = target: T3, human serotonin transporter (Homo sapiens, UniProt P31645); details: for inhibition: 10 µM;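 as to all read-outs here: Read-out: uptake of tritium-labelled serotonin, measured by scintillation counting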
T3 sequence (P31645 whole entry): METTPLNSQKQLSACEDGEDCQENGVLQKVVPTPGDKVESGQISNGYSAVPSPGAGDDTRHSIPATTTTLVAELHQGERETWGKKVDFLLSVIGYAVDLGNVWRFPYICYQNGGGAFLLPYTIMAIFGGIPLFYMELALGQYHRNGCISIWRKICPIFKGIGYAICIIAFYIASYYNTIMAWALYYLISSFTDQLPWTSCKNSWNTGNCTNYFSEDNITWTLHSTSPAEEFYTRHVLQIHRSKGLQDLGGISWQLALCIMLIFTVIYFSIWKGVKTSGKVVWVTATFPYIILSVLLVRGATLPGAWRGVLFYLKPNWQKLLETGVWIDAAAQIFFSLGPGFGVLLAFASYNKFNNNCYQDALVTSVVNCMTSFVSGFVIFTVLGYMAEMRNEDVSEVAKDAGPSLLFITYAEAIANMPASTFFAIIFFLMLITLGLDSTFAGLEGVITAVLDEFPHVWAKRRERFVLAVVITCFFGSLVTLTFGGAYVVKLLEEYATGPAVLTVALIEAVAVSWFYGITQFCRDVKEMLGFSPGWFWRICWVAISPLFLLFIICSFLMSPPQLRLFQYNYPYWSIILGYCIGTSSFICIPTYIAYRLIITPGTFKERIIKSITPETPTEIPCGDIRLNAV
Method: (§2) Following incubation, [^3H] serotonin uptake was quantified by a standard scintillation counting method.

[6] = target: T3, human serotonin transporter; test: cell-based
Method: as §2

T1 sequence (P31645 whole entry): as above

Compound: COc1ccc([C@@]23CC[C@@H](OC(=O)c4ccc[nH]4)C[C@@H]2N(C)CC3)cc1OC [Compound 53]
- inhibition at 1 µM [1]: 99%
- inhibition at 3 µM [1]: 98%
- inhibition at 30 µM [2]: 94%
- inhibition at 100 µM [2]: 97%

Compound: CN1CC[C@]2(c3ccc(OCC4CC4)c(OCC4CC4)c3)CCC(=O)C[C@H]12 [Compound 36]
- IC50 [3]: > 30 µM
- IC50 [4]: > 30 µM
- IC50 [5]: 0.4 µM

Compound: CCCCOc1cc([C@@]23CCC(=O)C[C@@H]2N(C)CC3)ccc1OCC [Compound 20]
- inhibition at 30 µM [3]: 92%
- inhibition at 30 µM [4]: 83%
- inhibition [5]: 100%

Compound: CCOc1cc([C@@]23CCC(=O)C[C@@H]2N(C)CC3)ccc1OCC1CC1 [Compound 35]
- IC50 [3]: > 30 µM
- IC50 [4]: > 30 µM
- IC50 [5]: 0.2 µM

Compound: CCCCOc1cc([C@@]23CCC(=O)C[C@@H]2N(C)CC3)ccc1OCC1CC1 [Compound 37]
- IC50 [3]: > 30 µM
- IC50 [4]: > 30 µM
- IC50 [5]: 0.8 µM

Compound: CC(C)Oc1ccc([C@@]23CCC(=O)C[C@@H]2N(C)CC3)cc1OCC1CC1 [Compound 22]
- inhibition at 30 µM [3]: 37%
- inhibition at 30 µM [4]: 38%
- inhibition [5]: 91%

Compound: CN1CC[C@]2(c3ccc(OCC4CC4)c(O)c3)CCC(=O)C[C@H]12 [Compound 33]
- IC50 [3]: > 30 µM
- IC50 [4]: > 30 µM
- IC50 [5]: 2.1 µM

Compound: COc1ccc([C@@]23CCC(=O)C[C@@H]2N(C)CC3)cc1OC1CCCCC1 [Compound 14]
- inhibition at 30 µM [3]: 97%
- inhibition at 30 µM [4]: 94%
- inhibition [5]: 59%

Compound: COc1ccc([C@@]23C=C[C@@H](OC(=O)c4ccc[nH]4)C[C@@H]2N(C)CC3)cc1OC [Compound 61]
- inhibition at 1 µM [1]: 101%
- inhibition at 3 µM [1]: 106%
- inhibition at 30 µM [2]: 94%
- inhibition at 100 µM [2]: 90%

Compound: C#CCOc1cc([C@@]23CCC(=O)C[C@@H]2N(C)CC3)ccc1OC [Compound 15]
- IC50 [3]: < 3 µM
- IC50 [4]: < 3 µM
- IC50 [6]: < 3 µM

Compound: COc1ccc([C@@]23CCC(=O)C[C@@H]2N(C)CC3)cc1OCC(F)F [Compound 7]
- IC50 [5]: 0.02 µM

Compound: COc1ccc([C@@]23CCC(=O)C[C@@H]2N(C)CC3)cc1OCc1ccccc1 [Compound 12]
- IC50 [6]: > 10 µM

Compound: COc1ccc([C@@]23CC[C@@H](OC(=O)C(C)C)C[C@@H]2N(C)CC3)cc1OC [Compound 51]
- inhibition at 1 µM [1]: 99%
- inhibition at 3 µM [1]: 98%
- inhibition at 30 µM [2]: 95%
- inhibition at 100 µM [2]: 99%

Compound: COc1ccc([C@]23CCC(=O)C[C@H]2N(C)CC3)cc1OC [Compound 45]
- IC50 [3]: < 3 µM

Compound: CCOc1ccc([C@@]23CCC(=O)C[C@@H]2N(C)CC3)cc1SC [Compound 17]
- inhibition at 30 µM [3]: 74%
- inhibition at 30 µM [4]: 61%
- inhibition [5]: 99%

Compound: COc1cc([C@@]23CCC(=O)C[C@@H]2N(C)CC3)ccc1OC(C)C [Compound 19]
- inhibition at 30 µM [3]: 3%
- inhibition at 30 µM [4]: 1%
- inhibition [5]: 99%

Compound: COc1ccc([C@@]23CC[C@@H](OC(=O)CN)C[C@@H]2N(C)CC3)cc1OC [Compound 48]
- inhibition at 1 µM [1]: 93%
- inhibition at 3 µM [1]: 101%
- inhibition at 30 µM [2]: -8%
- inhibition at 100 µM [2]: 48%

Compound: CC(C)Oc1ccc([C@@]23CCC(=O)C[C@@H]2N(C)CC3)cc1O [Compound 18]
- inhibition at 30 µM [3]: -3%
- inhibition at 30 µM [4]: -4%
- inhibition [5]: 86%

Compound: COc1ccc([C@@]23CC[C@@H](OC(=O)c4ccccc4)C[C@@H]2N(C)CC3)cc1OC [Compound 52]
- inhibition at 1 µM [1]: 91%
- inhibition at 3 µM [1]: 91%
- inhibition at 30 µM [2]: 97%
- inhibition at 100 µM [2]: 99%

Compound: CN1CC[C@]2(c3ccc(OCC4CC4)c(OC4CCCC4)c3)CCC(=O)C[C@H]12 [Compound 39]
- IC50 [3]: > 30 µM
- IC50 [4]: > 30 µM
- IC50 [5]: 4.5 µM

Compound: CCC(=O)O[C@@H]1C=C[C@@]2(c3ccc(OC)c(OC)c3)CCN(C)[C@H]2C1 [Compound 58]
- inhibition at 1 µM [1]: 98%
- inhibition at 3 µM [1]: 98%
- inhibition at 30 µM [2]: 103%
- inhibition at 100 µM [2]: 100%

Compound: CCOc1ccc([C@@]23CCC(=O)C[C@@H]2N(C)CC3)cc1OC [Compound 31]
- IC50 [6]: < 0.1 µM
